Tested on: Endogenous Huntingtin Protein
Experiment: Endogenous Huntingtin Protein Assay (MSD plates, MW1 or MAB2166 capture antibody)
Assay type: cell-based
Settings: Table 1
In short: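 Sandwich MSD immunoassay: plates were coated overnight at 4° C with MW1 (expanded polyQ) or MAB2166 capture antibody at 1 μg/mL, then blocked with 5% BSA. Samples were bound overnight at 4° C, followed by rabbit mAb #5656S and SULFO-TAG anti-rabbit detection, each at 0.25 μg/mL for 1 h at room temperature. Signal was read by electrochemiluminescence.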

SMILES | IC50 [nM]
CC1CC(N(C)c2nc3sc(-c4ccc(-c5cn[nH]c5)cn4)nc3s2)CCN1C (stereo not drawn) [Compound 126, N-(1,2-dimethylpiperidin-4-yl)-N-methyl-5-[5-(1H-pyrazol-4-yl)pyridin-2-yl][1,3]thiazolo[5,4-d][1,3]thiazol-2-amine] | 100 to 500
Oc1cc(-c2cn[nH]c2)ccc1-c1nc2sc(C3CCNCC3)nc2s1 [Compound 208, 2-[5-(piperidin-4-yl)[1,3]thiazolo[5,4-d][1,3]thiazol-2-yl]-5-(1H-pyrazol-4-yl)phenol] | 1000 to 3000
CN1CCC2(CC1)CCN2c1nc2sc(-c3ncc(-c4cn[nH]c4)cc3O)nc2s1 [Compound 179, 2-[5-(7-methyl-1,7-diazaspiro[3.5]nonan-1-yl)[1,3]thiazolo[5,4-d][1,3]thiazol-2-yl]-5-(1H-pyrazol-4-yl)pyridin-3-ol] | ≤ 100
CN(c1nc2sc(-c3ncc(-c4cn[nH]c4)c4cc[nH]c34)nc2s1)C1CC(C)(C)NC(C)(C)C1 [Compound 159, N-methyl-5-[4-(1H-pyrazol-4-yl)-1H-pyrrolo[2,3-c]pyridin-7-yl]-N-(2,2,6,6-tetramethylpiperidin-4-yl)[1,3]thiazolo[5,4-d][1,3]thiazol-2-amine] | ≤ 100
C[C@H]1C[C@H](Oc2nc3sc(-c4ncc(-c5nnn(C)n5)c5cc[nH]c45)nc3s2)CCN1 [Compound 81, 7-(5-{[(2S,4R)-2-methylpiperidin-4-yl]oxy}[1,3]thiazolo[5,4-d][1,3]thiazol-2-yl)-4-(2-methyl-2H-tetrazol-5-yl)-1H-pyrrolo[2,3-c]pyridine] | ≤ 100
CN(c1nc2sc(-c3ccc(-c4cn[nH]c4)cn3)nc2s1)C1CC(C)(C)NC(C)(C)C1 [Compound 133, N-methyl-5-[5-(1H-pyrazol-4-yl)pyridin-2-yl]-N-(2,2,6,6-tetramethylpiperidin-4-yl)[1,3]thiazolo[5,4-d][1,3]thiazol-2-amine] | ≤ 100
CC(C)(C)NC1CCN(c2nc3sc(-c4ncc(-c5cn[nH]c5)cn4)nc3s2)C1 (stereo not drawn) [Compound 150, N-tert-butyl-1-{5-[5-(1H-pyrazol-4-yl)pyrimidin-2-yl][1,3]thiazolo[5,4-d][1,3]thiazol-2-yl}pyrrolidin-3-amine] | 1000 to 3000
CN(c1nc2sc(-c3ccc(-c4cnn(C)c4)cc3O)nc2s1)C1CCNCC1 [Compound 40, 2-{5-[methyl(piperidin-4-yl)amino][1,3]thiazolo[5,4-d][1,3]thiazol-2-yl}-5-(1-methyl-1H-pyrazol-4-yl)phenol] | ≤ 100
CN(c1nc2sc(-c3cnc(-c4ccn(C)c(=O)c4)cn3)nc2s1)[C@H]1C[C@]2(C)CC[C@](C)(C1)N2 [Compound 92, 4-[5-(5-{[(1R,3s,5S)-1,5-dimethyl-8-azabicyclo[3.2.1]octan-3-yl](methyl)amino}[1,3]thiazolo[5,4-d][1,3]thiazol-2-yl)pyrazin-2-yl]-1-methylpyridin-2(1H)-one] | ≤ 100
Cc1[nH]ncc1-c1cnc(-c2nc3sc(N(C)[C@H]4C[C@]5(C)CC[C@](C)(C4)N5)nc3s2)cn1 [Compound 86, N-[(1R,3s,5S)-1,5-dimethyl-8-azabicyclo[3.2.1]octan-3-yl]-N-methyl-5-[5-(5-methyl-1H-pyrazol-4-yl)pyrazin-2-yl][1,3]thiazolo[5,4-d][1,3]thiazol-2-amine] | ≤ 100
CC1(C)CC(Oc2nc3sc(-n4ccc(-c5cn[nH]c5)cc4=O)nc3s2)CC(C)(C)N1 [Compound 156, 4-(1H-pyrazol-4-yl)-1-{5-[(2,2,6,6-tetramethylpiperidin-4-yl)oxy][1,3]thiazolo[5,4-d][1,3]thiazol-2-yl}pyridin-2(1H)-one] | ≤ 100
CN(c1nc2sc(-c3ncc(-c4cn[nH]c4)cc3O)nc2s1)[C@@H]1C[C@H]2CC[C@@H](C1)N2 [Compound 203, 2-(5-{[(1R,3s,5S)-8-azabicyclo[3.2.1]octan-3-yl](methyl)amino}[1,3]thiazolo[5,4-d][1,3]thiazol-2-yl)-5-(1H-pyrazol-4-yl)pyridin-3-ol] | ≤ 100

Source: US11685746B2, “Heteroaryl compounds for treating Huntington's disease” (PTC THERAPEUTICS, INC., priority 2018, dated 2023)
